{"source": "patent US7122173B2", "about": "“Agent for the treatment of bladder irritative symptoms accompanied by benign prostatic hyperplasia” (Kyowa Hakko Kogyo Co., Ltd., priority 2001, dated 2006)", "key": {"[1]": {"test_system": "rats with partial urethra obstruction", "assay": "Bladder capacity in rats with partial outlet obstruction (cystometry)", "assay_type": "in vivo, rat", "details": "oral", "method": "The test was carried out in accordance with the method of Saito et al. (J. Urol., 150: 1145–1151 (1993)). Male SD rats of 8 to 9 weeks of age (supplied by Japan SLC) were used in the test. Five to seven animals of these rats were put in each metal cage and reared by allowing them to freely take commercially available chow and water, in a rearing room at a room temperature of from 19 to 25° C. and a humidity of from 30 to 70% under illumination for 12 hours (from 7 a.m. to 7 p.m.) per day. Partial urethra obstruction was induced in rats, as a model of urethral obstruction mimicking BPH. Each rat was anesthetized by intraperitoneal administration of 50 mg/kg of pentobarbital sodium (Dainippon Pharmaceutical) and placed in dorsal position. The abdomen was cut in a length of about 1 cm by median incision to expose the bladder, prostate and the urethra. The bladder neck and bladder base were peeled from the prostate, and two surgical sutures (No. 3, Natsume Seisakusho) were passed behind the urethra base. A polyethylene tube (PE-200; Becton Dickinson) was placed along the urethra, and the urethra was mildly double-ligated together with the tube. The ligation was carried out in such a manner that the urethra was not pressed by the polyethylene tube and the sutures were not loosened. The polyethylene tube was pulled out and the urethra was constricted. On the same day of the above surgery, bladder catheter indwelling operation was carried out. The bladder was exposed, and a polyethylene tube (PE-50; Becton Dickinson) was inserted from the bladder top and fixed with a surgical suture. The other end was exposed subcutaneously from the back neck, plugged and then fixed to the skin with the surgical suture. The bladder was returned to the original position and the abdomen was sutured with the surgical suture. Five to seven days after the urethra obstruction and catheter indwelling operations, the rats with partial urethra obstruction and those subjected to sham-operation were put in Ballman cages (KN-326-1, Natsume Seisakusho) under the restricted state, and a three-way cock was connected to the bladder catheter. A pressure transducer (DX-360; Nihon Kohden) was connected to one end of the three-way cock, and the intravesical pressure signal was amplified via a strain pressure amplifier (AP-601G; Nihon Kohden), measured by a polygraph (RPM-6008; Nihon Kohden) and recorded on a thermal array recorder (RTA-1200; Nihon Kohden). A syringe filled with physiological saline (Otsuka Pharmaceutical Industries, Tokushima, Japan) was connected to the other end of the three-way cock and fixed to an infusion pump (KDS 220; Neuroscience). An FD pickup (TB-611T; Nihon Kohden) equipped with a cup was placed on the downside of the Ballman cage and connected to the strain gauge pressure amplifier, and the micturition volume was recorded on the thermal array recorder as the tension change. After the completion of the preparation, physiological saline kept at room temperature was continuously injected into the bladder at a flow rate of 6 mL/h for about 30 minutes, and the animals periodically expressing micturition contraction were used in the test. After they are allowed to stand for 30 to 60 minutes, residual urine was manually expressed by finger pressure. Five minutes thereafter, the injection of physiological saline into the bladder was started again, and the injection was immediately stopped when micturition was observed. The bladder capacity was calculated from the period of time until expression of micturition (injection rate 6 mL/h×injection period). The residual urine volume was calculated by subtracting the micturition volume at the time of bladder contraction (voided volume per micturition) from the bladder capacity. By repeating 30 minutes of bladder injection of physiological saline 2 to 3 times, respective values were measured and used as the test compound or solvent pre-administration values. […]"}, "[2]": {"test_system": "rats with partial urethra obstruction", "assay": "Increased urinary frequency accompanied by partial bladder outlet obstruction (metabolism cage urination test)", "assay_type": "in vivo, rat", "method": "The test was carried out in accordance with the method of Saito et al. (J. Urol., 150: 1045–1051 (1993)). Male SD rats of 8 to 9 weeks of age (supplied by Japan SLC) were used in the test. Five to seven animals of these rats were put in each metal cage and reared by allowing them to freely take commercially available chow and water, in a rearing room at a room temperature of from 19 to 25° C. and a humidity of from 30 to 70% under illumination for 12 hours (from 7 a.m. to 7 p.m.) per day. Partial urethra obstruction was induced in rats as a model of outlet obstruction mimicking BPH. Each rat was anesthetized by intraperitoneal administration of 50 mg/kg of pentobarbital sodium (Dainippon Pharmaceutical) and placed in dorsal position. The abdomen was cut in a length of about 1 cm by midline incision to expose the bladder, prostate and the urethra. The bladder neck and bladder base were peeled from the prostate, and two surgical sutures (No. 3, Natsume Seisakusho) were passed behind the urethra base. A polyethylene tube (PE-200; Becton Dickinson) was placed along the urethra, and the urethra was mildly double-ligated together with the tube. The ligation was carried out in such a manner that the urethra was not pressed by the polyethylene tube and the sutures were not loosened. The polyethylene tube was pulled out and the urethra was partially obstructed. The incised part of the abdomen was sutured with the surgical suture. Five to seven days after the partial urethra constriction operation, the rats subjected to partial urethra obstruction and those subjected to sham-operation were put in metabolism cages (KN-649, Natsume Seisakusho). For acclimatization, rats were reared for 1 day with free drinking and feeding, and the urination test was started on the next day. Using an electronic force balance (HF-200; A and D), the amount of urination by rats was continuously measured as weight, and -recorded on a thermal array recorder (RTA-1200; Nihon Kohden) via a direct current amplifier (AD-641G; Nihon Kohden). The light period (9 to 18 o'clock) under illumination and the dark period (19 to 4 o'clock) under lights off were used as the data collecting periods, and the number of micturition and the urinary volume during these periods were measured to calculate urinary frequency (frequency of micturition per 9 hours), voided volume per micturition and total urine volume as the measuring parameters. In this case, the voided volume per micturition was calculated by dividing the total urine volume per 9 hours by the urinary frequency per 9 hours. Compound 1 or a solvent (0.5 w/v % aqueous methyl cellulose 400 cP (average viscosity: 400 centipoises) solution) was administered twice on the next day between 8 to 9 o'clock and 18 to 19 o'clock, and the number of micturition and urine volume during 9 to 18 o'clock and 19 to 4 o'clock were measured to obtain measured values similarly to the case of the previous day. In the sham-operation group, the urinary frequency, voided volume per micturition and the total urine volume on the first day of the urination test were compared with those in the urethra obstruction group. The urinary frequency, voided volume per micturition and the total urine volume in each group were calculated as average ±standard error."}, "[3]": {"details": "before administration (baseline of the Compound 1 group)"}, "[4]": {"details": "rats with partial urethra obstruction"}, "[5]": {"details": "Dark period (active period), after administration"}, "[6]": {"details": "Dark period (active period), before administration (baseline of the Compound 1 group)"}, "[7]": {"details": "Light period (inactive period), after administration"}, "[8]": {"details": "Light period (inactive period), before administration (baseline of the Compound 1 group)"}}, "data": [{"molecule": "C[C@](O)(C(=O)Nc1cccc2c1C(=O)c1sccc1CS2(=O)=O)C(F)(F)F", "note": "[Compound 1, (S)-(+)-N-(5,5-dioxido-10-oxo-4,10-dihydrothieno[3,2-c][1]benzothiepin-9-yl)-3,3,3-trifluoro-2-hydroxy-2-methylpropanamide]", "values": [{"measurement": "Bladder capacity", "setting": "[1]; 1 h after administration", "value": "0.54 ± 0.08", "unit": "mL"}, {"measurement": "Residual urine volume", "setting": "[1]; 1 h after administration", "value": "0.18 ± 0.07", "unit": "mL"}, {"measurement": "micturition volume", "setting": "[1]; 1 h after administration", "value": "0.36 ± 0.07", "unit": "mL"}, {"measurement": "Bladder capacity", "setting": "[1]; 2 h after administration", "value": "0.46 ± 0.07", "unit": "mL"}, {"measurement": "Residual urine volume", "setting": "[1]; 2 h after administration", "value": "0.10 ± 0.05", "unit": "mL"}, {"measurement": "micturition volume", "setting": "[1]; 2 h after administration", "value": "0.36 ± 0.07", "unit": "mL"}, {"measurement": "Bladder capacity", "setting": "[1]; 3 h after administration", "value": "0.44 ± 0.07", "unit": "mL"}, {"measurement": "Residual urine volume", "setting": "[1]; 3 h after administration", "value": "0.18 ± 0.07", "unit": "mL"}, {"measurement": "micturition volume", "setting": "[1]; 3 h after administration", "value": "0.27 ± 0.01", "unit": "mL"}, {"measurement": "Bladder capacity", "setting": "[1]; [3]", "value": "0.40 ± 0.04", "unit": "mL"}, {"measurement": "Residual urine volume", "setting": "[1]; [3]", "value": "0.15 ± 0.02", "unit": "mL"}, {"measurement": "micturition volume", "setting": "[1]; [3]", "value": "0.25 ± 0.04", "unit": "mL"}, {"measurement": "Effect on bladder capacity (in words)", "setting": "[1]; [4]", "value": "tended to increase bladder capacity"}, {"measurement": "Effect on micturition volume (in words)", "setting": "[1]; [4]", "value": "significantly increased micturition volume"}, {"measurement": "Total urine volume", "setting": "[2]; [5]", "value": "4.83 ± 0.83", "unit": "mL/9 h"}, {"measurement": "Urinary frequency", "setting": "[2]; [5]", "value": "6.7 ± 1.2", "unit": "micturitions/9 h"}, {"measurement": "Voided volume per micturition", "setting": "[2]; [5]", "value": "0.771 ± 0.160", "unit": "mL"}, {"measurement": "Total urine volume", "setting": "[2]; [6]", "value": "3.57 ± 0.57", "unit": "mL/9 h"}, {"measurement": "Urinary frequency", "setting": "[2]; [6]", "value": "10.0 ± 1.3", "unit": "micturitions/9 h"}, {"measurement": "Voided volume per micturition", "setting": "[2]; [6]", "value": "0.362 ± 0.038", "unit": "mL"}, {"measurement": "Total urine volume", "setting": "[2]; [7]", "value": "4.76 ± 0.78", "unit": "mL/9 h"}, {"measurement": "Urinary frequency", "setting": "[2]; [7]", "value": "5.3 ± 0.4", "unit": "micturitions/9 h"}, {"measurement": "Voided volume per micturition", "setting": "[2]; [7]", "value": "0.899 ± 0.127", "unit": "mL"}, {"measurement": "Total urine volume", "setting": "[2]; [8]", "value": "4.80 ± 0.31", "unit": "mL/9 h"}, {"measurement": "Urinary frequency", "setting": "[2]; [8]", "value": "8.7 ± 0.8", "unit": "micturitions/9 h"}, {"measurement": "Voided volume per micturition", "setting": "[2]; [8]", "value": "0.577 ± 0.064", "unit": "mL"}, {"measurement": "Effect on urinary frequency (in words)", "setting": "[2]; [4]", "value": "significantly reduced urinary frequency"}, {"measurement": "Effect on voided volume per micturition (in words)", "setting": "[2]; [4]", "value": "tended to increase voided volume per micturition"}]}]}
